Measured values reported in US10336682B1, “Hydroxytyrosol shikimic acid ester for treating cardiovascular deceases and a method of preparing the same” (SHAANXI UNIVERSITY OF SCIENCE AND TECHNOLOGY, priority 2019, dated 2019).

How the values were obtained:
blood clot (thrombus) = experiment: Measurement of thrombus resolution rate: mouse blood clots incubated with test solution; parameters: species or system Kunming mice; conditions: for Resolution/% (thrombus resolution rate): 2 mL solution on mouse blood clot, 6 hours at 37° C.
Description: Measurement of Thrombus Resolution Rate in Mice
Experimental materials: Clean-grade Kunming mice, weighing 20-28 g each, half male and half female; urokinase (Shanghai Maclean Biotechnology Co., Ltd.)
Experimental methods: 40 healthy Kunming mice were randomly divided into 5 groups according to their body weight, 8 in each group, half male and half female. One group of mice was selected as blank control. 1 mL of blood was taken from each mouse of the blank control group. After the blood was solidified, the formed blood clot (thrombus) was rinse with physiological saline for 30 minutes, and dried and weighed. The average weight of blood clot was calculated as W. Other groups of mice were treated with the same method. The blood clots were rinsed, and placed in cryotubes. 2 mL solutions of urokinase (positive control group), a low dose of hydroxytyrosol shikimic acid ester (experiment group 1), a medium dose of hydroxytyrosol shikimic acid ester (experimental group 2), and a high dose of hydroxytyrosol shikimic acid ester (experimental group 3) were added to the blood clots. For the blank control group, an equal volume of physiological saline was added to the blood clot. After incubating for 6 hours in a 37° C. incubator, the clots were taken out and rinsed with physiological saline for 30 min. After drying and weighing, the average weight of the blood clot was recorded as G, and the resolution rate of the blood clot was calculated according to the following formula. Thrombus Resolution Rate (%)=[(W−G)/W]×100%

thromboxane B2 (TXB2) = experiment: Measurement of TXB2 in rat plasma after intragastric administration; format: in vivo, SD rats; conditions: for TXB2 level in rat plasma: after 20 days, male SD rats
Description: (§1) Measurement of thromboxane B2 (TXB2), 6-keto prostaglandin F1a (6-Ke-PGF1a) and prostaglandin E2 (PGE2) in rat plasma by enzyme-linked immunosorbent assay
(§2) Experimental materials: clean grade SD rats, body weight 150-250 g, male; TXB2 radioimmunoassay kit, 6-Ke-PGF1a radioimmunoassay kit, PGE2 radioimmunoassay kit, Shanghai Bairui Biotechnology Co., Ltd.
(§3) Experimental methods: 32 rats were randomly divided into 4 groups, 8 rats in each group. After 2 days of normal feeding, blood was taken from the jugular vein of each rat, and the plasma was separated and frozen at −20° C. On the next day, rats in the experimental groups were intragastrically administered with low doses of hydroxytyrosol shikimic acid ester (experimental group 1), medium dose of hydroxytyrosol shikimic acid ester (experimental group 2) and high-dose hydroxytyrosol shikimic acid ester (experimental group 3) at a dose of 1 mL/100 g. Rats in the control group were intragastrically administered with the same amount of normal saline. After 20 days, blood was taken from the jugular vein of each rat, anticoagulated, and the plasma was separated and frozen at −20° C. The contents of plasma TXB2, 6-Ke-PGF1A and PGE2 in each group of rats were determined according to TXB2, 6-Ke-PGF1a and PGE2 kit methods.

prostaglandin E2 (PGE2) = experiment: Measurement of PGE2 in rat plasma after intragastric administration; format: in vivo, SD rats; conditions: for PGE2 level in rat plasma: after 20 days, male SD rats
Description: as §1, §2, §3

[1] = test system: 6-keto prostaglandin F1a (6-Ke-PGF1a); experiment: Measurement of 6-Ke-PGF1a in rat plasma after intragastric administration; format: in vivo, SD rats; conditions: for 6-Ke-PGF1a level in rat plasma: after 20 days, male SD rats
Description: as §1, §2, §3

[2] = compared with the blank control group, 25-250 mg/Kg · d

O=C(OCCc1ccc(O)c(O)c1)C1=C[C@@H](O)[C@@H](O)[C@H](O)C1 [hydroxytyrosol shikimic acid ester]
Resolution/% (thrombus resolution rate) (blood clot (thrombus); 2.5 mg/mL (low dose, experimental group 1)): 6.33 ± 0.19 %
Resolution/% (thrombus resolution rate) (blood clot (thrombus); 5 mg/mL (medium dose, experimental group 2)): 7.04 ± 0.41 %
Resolution/% (thrombus resolution rate) (blood clot (thrombus); 10 mg/mL (high dose, experimental group 3)): 8.93 ± 0.45 %
blood clot resolution (thrombolytic) effect, in words (blood clot (thrombus); compared with the blank control group, 2.5-10 mg/mL): significant thrombolytic effect
TXB2 level in rat plasma (thromboxane B2 (TXB2); 25 mg/Kg · d intragastric): 4.93 ± 0.12 pg/mL
TXB2 level in rat plasma (thromboxane B2 (TXB2); 250 mg/Kg · d intragastric): 3.12 ± 0.14 pg/mL
content of TXB2 in rat plasma, in words (thromboxane B2 (TXB2); [2]): reduced in a dose-dependent manner
TXB2 level in rat plasma (thromboxane B2 (TXB2); intragastric): 4.38 ± 0.22 pg/mL
PGE2 level in rat plasma (prostaglandin E2 (PGE2); 25 mg/Kg · d intragastric): 26.18 ± 0.21 pg/mL
PGE2 level in rat plasma (prostaglandin E2 (PGE2); 50 mg/Kg · d intragastric): 24.22 ± 0.14 pg/mL
PGE2 level in rat plasma (prostaglandin E2 (PGE2); 250 mg/Kg · d intragastric): 20.87 ± 0.19 pg/mL
content of PGE2 in rat plasma, in words (prostaglandin E2 (PGE2); [2]): reduced in a dose-dependent manner
6-Ke-PGF1a level in rat plasma ([1]; 25 mg/Kg · d intragastric): 76.46 ± 0.17 pg/mL
6-Ke-PGF1a level in rat plasma ([1]; 50 mg/Kg · d intragastric): 85.40 ± 0.32 pg/mL
6-Ke-PGF1a level in rat plasma ([1]; 250 mg/Kg · d intragastric): 81.36 ± 0.28 pg/mL
content of 6-Ke-PGF1a in rat plasma, in words ([1]; compared with the blank control group, 25-250 mg/Kg · d, no obvious dose-dependent relationship): increased

urokinase [reference compound]
Resolution/% (thrombus resolution rate) (blood clot (thrombus); 0.5 U/mL): 12.38 ± 0.27 %
